The source of these data is US6759385B1, “Methods to treat undesirable immune responses” (Regents of the University of Minnesota, priority 1997, dated 2004).

The subject of experiment [1] is serum anti-TAChR antibody. Briefly: Anti-AChR antibody assay by RIPA (Example I). The experiment is classed as in vivo, mouse.
Excerpt: Sera was obtained from the mice after each clinical testing. […] The antibody concentration is expressed as μM precipitated ^125I-αBTX.
Experiment [2] deals with anti-TAChR and anti-peptide IgG subclasses. The experiment is described as follows: ELISA of anti-TAChR and anti-peptide IgG subclasses (Example III). The experiment is classed as in vivo, mouse. To be noted: IL-4 KO mice, nasal α epitope pool. How it is done:
Assay of Anti-TAChR and Anti-peptide IgG Subclasses. The relative concentration of IgG subclasses of anti-TAChR and anti-peptide antibodies in the sera of peptide- and sham-treated mice was measured by ELISA after immunization with TAChR. Pooled sera from three-four mice that had received identical treatments was used. The sera used in this assay was obtained at the end of the observation period (10 weeks after beginning of the anti-TAChR immunization).
Ninety-six well plates (Nunc, Karstrup, Denmark) were washed extensively and incubated as follows: 4 hours with a 10 μg/ml solution of TAChR or of individual peptides Tα150-169, Tα181-200 and Tα360-378 in 0.1 M Na phosphate buffer, pH 9.5 (two wells for each antigen), 1 hr with PBS plus 3% bovine serum albumin (BSA), 2 hours with mouse serum (serial dilutions from 1:100 to 1:40,000 in PBS plus 3% BSA), 1 hr with a dilution 1:1000 in PBS plus 3% BSA of goat antibody specific for the total IgG, or IgGl, or IgG2a, or IgG2b or IgG3 (Mouse Monoclonal Isotyping Kit, Sigma, St. Louis, Mo.), and 30 minutes with a 1:3000 dilution of peroxidase-conjugate rabbit anti-goat IgG (Sigma) in PBS plus 3% BSA. The plates were washed, and developed them for 20-60 minutes with ABTS peroxidase substrate system (Kirkegaard & Perry Laboratories Inc., Gaithersburg, Md.). […] The OD was read at 405 nanometers. […]

The test system of experiment [3] is CD8+ depleted spleen cells. Briefly: Lymphocyte proliferation assay, CD8+ depleted spleen cells of IL-4 KO mice. In kind it is cell-based, mouse. As to conditions: IL-4 KO mice immunized with TAChR, 10 μg/ml peptide. The procedure:
Lymphocyte Proliferation Assay. Two weeks after the last immunization, spleen cells (Bellone et al., 1991) were obtained from three identically treated IL-4 KO mice. The cells were pooled and depleted them in CD8^+ cells using paramagnetic beads and rat anti-mouse CD8^+ antibody (Pharmingen, San Diego, Calif.). The cells were suspended in RPMI-1640 (Gibco, Grand Island, N.Y.) supplemented with 10% heat inactivated fetal calf serum (Gibco), 50 μM 2-mercaptoethanol, 1 mM L-glutamine, 10 mM Hepes, 1 mM sodium pyruvate, 100 U/ml penicillin and 100 μg/ml streptomycin (×10^6 cells/ml). The cells were seeded in triplicate in 96 flat-bottom well plates (200 μl/well). One of the following antigens or stimulants was added: 10 μg/ml phytohemoagglutinine (PHA) (Sigma); 10 μg/ml TAChR; the pools of overlapping peptides spanning the α, β, γ, or δ subunit sequences (5 μg/ml) of each peptide); and 10 μg/ml of the individual a subunit peptides. Controls were triplicate wells cultivated without any antigen, or with or a 20-residue control peptide synthesized by the same method, unrelated to the TAChR sequence (10 μg). After four days the cells were labeled for 16 hours with ^3H-thymidine (1 μCi per well, specific activity 6.7 Ci/mmol, Dupont, Boston, Mass.), and harvested (Titertek, Skatron, Sterling, Va.). The ^3H-thymidine incorporation was measured by liquid scintillation.

In the next experiment the test system is spleen CD4+ T-cells. The experiment is described as follows: Lymphocyte proliferation assay, spleen CD4+ T-cells (Example IV). In kind it is cell-based, mouse. How it is done:
Lymphocyte proliferation assay. Five to seven days after the last TAChR immunization, CD4^+ T-cells (Bellone et al., 1991a) were purified from the pooled spleens of three to four mice that had received identical treatments. Irradiated (3000 rad) spleen cells from non-immunized mice were diluted as needed in RPMI-1640 (Gibco, Grand Island, N.Y.) supplemented with 10% heat inactivated fetal calf serum (Gibco), 50 μM 2-mercapto-ethanol, 1 mM L-glutamine, 10 mM HEPES, 1 mM sodium pyruvate, 100 U/ml penicillin and 100 μg/ml streptomycin (culture medium) and used as APC. The spleen CD4^+ T-cells (1×10^6/ml in culture medium, 100×1/well) were seeded in triplicate in 96 flat-bottom well plates containing 100×1 of 5×10^6/ml APC. One of the following Ag was added: 10 μg/ml PHA (Sigma); 5 or 10 μg/ml TAChR; 5 or 10 μg/ml of the individual epitope peptides. The concentrations of TAChR and epitope peptides are in the saturating range of the dose dependence curve (Bellone et al., 1991a), and yielded consistent results. Controls were triplicate wells containing CD4^+ cells and APC without any Ag, or with the control peptide (10 μg/ml). After 4 days the cells were labeled for 16 hours with ^3H-thymidine (1 μCi per well, specific activity 6.7 Ci/mmol, Dupont, Boston, Mass.) and harvested (Titertek, Skatron, Sterling, Va.). The ^3H-thymidine incorporation was measured by liquid scintillation, and represented the results as stimulation indexes (S.I.: the ratio between the cpm obtained in the presence of a given stimulus, and the average cpm obtained for non-stimulated control cultures).

Experiment [4] has as its system CD8+ depleted spleen cells. Briefly: Cytokine secretion in response to TAChR by CD8+ depleted spleen cells (Example IV). In kind it is cell-based, mouse. To be noted: s.c. 200 μg/injection, 72 hours. The procedure: Cytokine secretion in response to TAChR by spleen CD4^+ cells in vitro. Five to seven days after the last immunization, spleen cells of three identically treated mice were pooled, and depleted them of CD8^+ cells using paramagnetic beads and rat anti-mouse CD8^+ Ab (Pharmingen, San Diego, Calif.), following the manufacturer's instructions. The CD8^+ depleted, CD4^+ enriched cells were cultured with 10 μg/ml TAChR, or without any stimulus. 24 well plates were used, and duplicate cultures prepared. The supernatants were harvested after 72 hours, and the concentrations of IFN-γ, IL-4 and IL-10 determined in duplicate samples by capture ELISA using anti-INF-γ, anti-IL-4, anti-IL-10 Ab, and recombinant INF-γ, IL-4 and IL-10 (Pharmingen) as standards, and following the manufacturer's instructions.

As for “peptide Tα150-169: synthetic peptide corresponding to residues 150-169 of the TAChR α subunit (TYDGTKVSISPESDRPDLST; UniProt P02710 174-193, looked up, fragment)”, in experiment [1] (as early as 4 weeks after first TAChR immunization), the “serum anti-TAChR antibody concentration compared with sham-treated” value is “significantly lower concentrations”. The “serum anti-TAChR antibody concentration” value in experiment [1] (at ten weeks, nasal protocol B, μM precipitated 125I-αBTX) was determined as 5.5 ± 1.5 µM. In addition, the “anti-peptide IgG2a” value in experiment [2] was “moderate synthesis of IgG2a”. In addition, in experiment [3], the “recognition of individual peptide by cells from sham-treated mice” value is “recognized strongly”. Further, in the experiment on spleen CD4+ T-cells (TAChR-immunized B6 mice, 5 or 10 μg/ml), the “response of CD4+ cells from sham-tolerized mice to the peptide” value is “responded consistently”. Moreover, the “response to Tα150-169 of tolerized mice” value with spleen CD4+ T-cells (s.c. prevention protocol) is recorded as “never responded”. Besides, in experiment [4], the “TAChR-induced IFN-γ secretion” value is “did not cause increased”, the “TAChR-induced IL-4 secretion” value is listed as “significant increase” and the “TAChR-induced IL-10 secretion” value was “in one of the two cultures tested”.
